{"source": "patent US20230256102A1", "about": "“COMPOSITES AND USES THEREOF” (YISSUM RESEARCH DEVELOPMENT COMPANY OF THE HEBREW …, priority 2019, published 2023)", "key": {"MRSA cells": {"system": "MRSA cells", "assay": "Mixing leucine-lysine random peptide mixtures and copper ions assay", "assay_type": "cell-based, Staphylococcus aureus", "conditions": "400 ppm copper sulfate, 6 hours", "protocol": "Mixing Leucine-Lysine random peptide mixtures and copper ions assay: MRSA cells were grown as described in order to prepare a bacterial suspension with O.D.600 nm of 0.1. […] After mixing by vortex, a 1 mL sample was taken for O.D. measurement and the remaining 1 mL sample was incubated for 6 hours at 37° C., 100 RPM. After this time, the O.D. was re-measured and the percentage growth was calculated according to the equation: […]"}, "[1]": {"system": "Xanthomonas campestris pv. campestris (Xcc) ATCC 33913", "assay": "Minimal inhibitory concentration (MIC) assay", "assay_type": "cell-based", "conditions": "for Average MIC / MIC value: 24 h, 28° C.; for Average MIC: ND = non-detected at tested concentrations (up to 200 μg/ml); for inhibitory activity in MIC assay (in words): highest concentration tested 200 μg/ml", "protocol": "Bacterial strains and growth conditions: The bacterial strains used in this study are detailed in Table 2. Unless stated otherwise, all strains were grown on nutrient agar (NA, Difco) or nutrient broth (NB, Difco), except Pst that was grown on Kings B agar plates and NB. All strains were grown at 28° C. for 48 h. All bacterial cells used in this study were stored in 25% glycerol at −80° C.\nMinimal inhibitory concentration (MIC) assay: MIC values were determined by broth microdilution in sterile 96-flat bottom well plates (Corning 3650) as described by Hayouka et al. (2013). Briefly, Xcc cells were grown for 24 h in NB at 28° C., with shaking (180 rpm) and re-suspended in fresh NB to reach an OD600 nm of 0.1 (˜10^8 CFU/ml) that was measured using a Genesys 10 uv spectrophotometer (ThermoSpectronic). One hundred microliter-aliquots of Xcc cells were added to 100 μl of NB medium containing peptides/lipopeptides at various concentrations. Bacterial growth was determined after incubation of 24 h at 28° C. by measurement of the optical density (OD595 nm), using a Tecan infinite Pro Plate reader. […] The highest concentration tested was 200 μg/ml. Each experiment was carried out at least three times, with three replicates per strain/concentration combination in each experiment."}}, "note": "Square brackets hold non-standard residues; d marks the D form. Peptide text beside a SMILES is read from it. * marks the point of attachment. Palmitoyl = CCCCCCCCCCCCCCCC(=O)*", "data": [{"compound": "O=S(=O)([O-])[O-].[Cu+2]", "note": "[copper sulfate]", "values": [{"measurement": "growth of MRSA lower than the control", "setting": "MRSA cells", "value": "~15", "unit": "%"}]}, {"compound": "CCCCCCCCCCCCCCCC(=O)N[C@H](CCCCN)C(=O)N[C@H](CCCCN)C(=O)N[C@H](CCCCN)C(=O)N[C@H](CCCCN)C(=O)N[C@H](CCCCN)C(N)=O", "note": "[lipopeptide #1, p-kkkkk] (Palmitoyl-[dK][dK][dK][dK][dK]-NH2)", "values": [{"measurement": "Average MIC", "setting": "[1]", "value": 6, "unit": "µg/mL"}]}, {"compound": "CCCCCCCCCCCCCCCC(=O)N[C@H](CCCCN)C(=O)N[C@H](CCCCN)C(=O)N[C@H](CCCCN)C(=O)N[C@H](CCCCN)C(=O)N[C@@H](Cc1ccccc1)C(N)=O", "note": "[lipopeptide #2, p-kkkkF] (Palmitoyl-[dK][dK][dK][dK]F-NH2)", "values": [{"measurement": "Average MIC", "setting": "[1]", "value": 6, "unit": "µg/mL"}]}, {"compound": "CCCCCCCCCCCCCCCC(=O)N[C@H](CCCCN)C(=O)N[C@H](CCCCN)C(=O)N[C@H](CCCCN)C(=O)N[C@@H](Cc1ccccc1)C(=O)N[C@H](CCCCN)C(N)=O", "note": "[lipopeptide #3, p-kkkFk] (Palmitoyl-[dK][dK][dK]F[dK]-NH2)", "values": [{"measurement": "Average MIC", "setting": "[1]", "value": 4, "unit": "µg/mL"}]}, {"compound": "CCCCCCCCCCCCCCCC(=O)N[C@H](CCCCN)C(=O)N[C@H](CCCCN)C(=O)N[C@@H](Cc1ccccc1)C(=O)N[C@H](CCCCN)C(=O)N[C@H](CCCCN)C(N)=O", "note": "[lipopeptide #4, p-kkFkk] (Palmitoyl-[dK][dK]F[dK][dK]-NH2)", "values": [{"measurement": "Average MIC", "setting": "[1]", "value": 6, "unit": "µg/mL"}]}, {"compound": "CCCCCCCCCCCCCCCC(=O)N[C@H](CCCCN)C(=O)N[C@@H](Cc1ccccc1)C(=O)N[C@H](CCCCN)C(=O)N[C@H](CCCCN)C(=O)N[C@H](CCCCN)C(N)=O", "note": "[lipopeptide #5, p-kFkkk] (Palmitoyl-[dK]F[dK][dK][dK]-NH2)", "values": [{"measurement": "Average MIC", "setting": "[1]", "value": 6, "unit": "µg/mL"}]}, {"compound": "CCCCCCCCCCCCCCCC(=O)N[C@@H](Cc1ccccc1)C(=O)N[C@H](CCCCN)C(=O)N[C@H](CCCCN)C(=O)N[C@H](CCCCN)C(=O)N[C@H](CCCCN)C(N)=O", "note": "[lipopeptide #6, p-Fkkkk] (Palmitoyl-F[dK][dK][dK][dK]-NH2)", "values": [{"measurement": "MIC value", "setting": "[1]", "value": 12, "unit": "µg/mL"}]}, {"compound": "CCCCCCCCCCCCCCCC(=O)N[C@H](CCCCN)C(=O)N[C@H](CCCCN)C(=O)N[C@H](CCCCN)C(=O)N[C@@H](Cc1ccccc1)C(=O)N[C@@H](Cc1ccccc1)C(N)=O", "note": "[lipopeptide #7, p-kkkFF] (Palmitoyl-[dK][dK][dK]FF-NH2)", "values": [{"measurement": "Average MIC", "setting": "[1]", "value": 14, "unit": "µg/mL"}]}, {"compound": "CCCCCCCCCCCCCCCC(=O)N[C@H](CCCCN)C(=O)N[C@H](CCCCN)C(=O)N[C@@H](Cc1ccccc1)C(=O)N[C@H](CCCCN)C(=O)N[C@@H](Cc1ccccc1)C(N)=O", "note": "[lipopeptide #8, p-kkFkF] (Palmitoyl-[dK][dK]F[dK]F-NH2)", "values": [{"measurement": "Average MIC", "setting": "[1]", "value": 6, "unit": "µg/mL"}]}, {"compound": "CCCCCCCCCCCCCCCC(=O)N[C@H](CCCCN)C(=O)N[C@@H](Cc1ccccc1)C(=O)N[C@H](CCCCN)C(=O)N[C@H](CCCCN)C(=O)N[C@@H](Cc1ccccc1)C(N)=O", "note": "[lipopeptide #9, p-kFkkF] (Palmitoyl-[dK]F[dK][dK]F-NH2)", "values": [{"measurement": "Average MIC", "setting": "[1]", "value": 5, "unit": "µg/mL"}]}, {"compound": "CCCCCCCCCCCCCCCC(=O)N[C@@H](Cc1ccccc1)C(=O)N[C@H](CCCCN)C(=O)N[C@H](CCCCN)C(=O)N[C@H](CCCCN)C(=O)N[C@@H](Cc1ccccc1)C(N)=O", "note": "[lipopeptide #10, p-FkkkF] (Palmitoyl-F[dK][dK][dK]F-NH2)", "values": [{"measurement": "Average MIC", "setting": "[1]", "value": 6, "unit": "µg/mL"}]}, {"compound": "CCCCCCCCCCCCCCCC(=O)N[C@H](CCCCN)C(=O)N[C@H](CCCCN)C(=O)N[C@@H](Cc1ccccc1)C(=O)N[C@@H](Cc1ccccc1)C(=O)N[C@H](CCCCN)C(N)=O", "note": "[lipopeptide #11, p-kkFFk] (Palmitoyl-[dK][dK]FF[dK]-NH2)", "values": [{"measurement": "Average MIC", "setting": "[1]", "value": 6, "unit": "µg/mL"}]}, {"compound": "CCCCCCCCCCCCCCCC(=O)N[C@H](CCCCN)C(=O)N[C@@H](Cc1ccccc1)C(=O)N[C@H](CCCCN)C(=O)N[C@@H](Cc1ccccc1)C(=O)N[C@H](CCCCN)C(N)=O", "note": "[lipopeptide #12, p-kFkFk] (Palmitoyl-[dK]F[dK]F[dK]-NH2)", "values": [{"measurement": "Average MIC", "setting": "[1]", "value": 12, "unit": "µg/mL"}]}, {"compound": "CCCCCCCCCCCCCCCC(=O)N[C@@H](Cc1ccccc1)C(=O)N[C@H](CCCCN)C(=O)N[C@H](CCCCN)C(=O)N[C@@H](Cc1ccccc1)C(=O)N[C@H](CCCCN)C(N)=O", "note": "[lipopeptide #13, p-FkkFk] (Palmitoyl-F[dK][dK]F[dK]-NH2)", "values": [{"measurement": "Average MIC", "setting": "[1]", "value": 6, "unit": "µg/mL"}]}, {"compound": "CCCCCCCCCCCCCCCC(=O)N[C@H](CCCCN)C(=O)N[C@@H](Cc1ccccc1)C(=O)N[C@@H](Cc1ccccc1)C(=O)N[C@H](CCCCN)C(=O)N[C@H](CCCCN)C(N)=O", "note": "[lipopeptide #14, p-kFFkk] (Palmitoyl-[dK]FF[dK][dK]-NH2)", "values": [{"measurement": "Average MIC", "setting": "[1]", "value": 8, "unit": "µg/mL"}]}, {"compound": "CCCCCCCCCCCCCCCC(=O)N[C@@H](Cc1ccccc1)C(=O)N[C@H](CCCCN)C(=O)N[C@@H](Cc1ccccc1)C(=O)N[C@H](CCCCN)C(=O)N[C@H](CCCCN)C(N)=O", "note": "[lipopeptide #15, p-FkFkk] (Palmitoyl-F[dK]F[dK][dK]-NH2)", "values": [{"measurement": "Average MIC", "setting": "[1]", "value": 10, "unit": "µg/mL"}]}, {"compound": "CCCCCCCCCCCCCCCC(=O)N[C@@H](Cc1ccccc1)C(=O)N[C@@H](Cc1ccccc1)C(=O)N[C@H](CCCCN)C(=O)N[C@H](CCCCN)C(=O)N[C@H](CCCCN)C(N)=O", "note": "[lipopeptide #16, p-FFkkk] (Palmitoyl-FF[dK][dK][dK]-NH2)", "values": [{"measurement": "MIC value", "setting": "[1]", "value": 50, "unit": "µg/mL"}]}, {"compound": "CCCCCCCCCCCCCCCC(=O)N[C@H](CCCCN)C(=O)N[C@H](CCCCN)C(=O)N[C@@H](Cc1ccccc1)C(=O)N[C@@H](Cc1ccccc1)C(=O)N[C@@H](Cc1ccccc1)C(N)=O", "note": "[lipopeptide #17, p-kkFFF] (Palmitoyl-[dK][dK]FFF-NH2)", "values": [{"measurement": "Average MIC", "setting": "[1]", "value": 50, "unit": "µg/mL"}]}, {"compound": "CCCCCCCCCCCCCCCC(=O)N[C@H](CCCCN)C(=O)N[C@@H](Cc1ccccc1)C(=O)N[C@H](CCCCN)C(=O)N[C@@H](Cc1ccccc1)C(=O)N[C@@H](Cc1ccccc1)C(N)=O", "note": "[lipopeptide #18, p-kFkFF] (Palmitoyl-[dK]F[dK]FF-NH2)", "values": [{"measurement": "Average MIC", "setting": "[1]", "value": 50, "unit": "µg/mL"}]}, {"compound": "CCCCCCCCCCCCCCCC(=O)N[C@@H](Cc1ccccc1)C(=O)N[C@H](CCCCN)C(=O)N[C@H](CCCCN)C(=O)N[C@@H](Cc1ccccc1)C(=O)N[C@@H](Cc1ccccc1)C(N)=O", "note": "[lipopeptide #19, p-FkkFF] (Palmitoyl-F[dK][dK]FF-NH2)", "values": [{"measurement": "MIC value", "setting": "[1]", "value": 38, "unit": "µg/mL"}]}, {"compound": "CCCCCCCCCCCCCCCC(=O)N[C@H](CCCCN)C(=O)N[C@@H](Cc1ccccc1)C(=O)N[C@@H](Cc1ccccc1)C(=O)N[C@H](CCCCN)C(=O)N[C@@H](Cc1ccccc1)C(N)=O", "note": "[lipopeptide #20, p-kFFkF] (Palmitoyl-[dK]FF[dK]F-NH2)", "values": [{"measurement": "Average MIC", "setting": "[1]", "value": 100, "unit": "µg/mL"}]}, {"compound": "CCCCCCCCCCCCCCCC(=O)N[C@@H](Cc1ccccc1)C(=O)N[C@H](CCCCN)C(=O)N[C@@H](Cc1ccccc1)C(=O)N[C@H](CCCCN)C(=O)N[C@@H](Cc1ccccc1)C(N)=O", "note": "[lipopeptide #21, p-FkFkF] (Palmitoyl-F[dK]F[dK]F-NH2)", "values": [{"measurement": "Average MIC", "setting": "[1]", "value": 38, "unit": "µg/mL"}]}, {"compound": "CCCCCCCCCCCCCCCC(=O)N[C@H](CCCCN)C(=O)N[C@@H](Cc1ccccc1)C(=O)N[C@@H](Cc1ccccc1)C(=O)N[C@@H](Cc1ccccc1)C(=O)N[C@H](CCCCN)C(N)=O", "note": "[lipopeptide #23, p-kFFFk] (Palmitoyl-[dK]FFF[dK]-NH2)", "values": [{"measurement": "Average MIC", "setting": "[1]", "value": 100, "unit": "µg/mL"}]}, {"compound": "p-FFFkk [lipopeptide #26]", "values": [{"measurement": "inhibitory activity in MIC assay (in words)", "setting": "[1]", "value": "not active"}]}, {"compound": "p-FFkFk [lipopeptide #25]", "values": [{"measurement": "inhibitory activity in MIC assay (in words)", "setting": "[1]", "value": "no inhibitory activity"}]}, {"compound": "p-FFkkF [lipopeptide #22]", "values": [{"measurement": "inhibitory activity in MIC assay (in words)", "setting": "[1]", "value": "no inhibitory activity"}]}, {"compound": "p-FkFFk [lipopeptide #24]", "values": [{"measurement": "inhibitory activity in MIC assay (in words)", "setting": "[1]", "value": "no inhibitory activity"}]}]}
